Values after ≈ are worked out from the molar mass of the structure shown. Values joined by “and” are separate entries in the source; they are usually repeats but may differ in a detail not shown here. Equal values may be shown once. Read-outs that look alike come from different tables or passages of the source. Marks after values point to notes of the source that are not given here.
How the values were obtained:
[1] = test system: T1, streptococcal GTFs; assay: GTF activity in solution, all GTFs (B, C, D, Ss) stated together; type: biochemical, Streptococcus mutans, S. sanguinis; conditions: for inhibitory effects on the activities of GTFs (in words): 1.33 mM (fluoride 250 ppm), solution and sHA surface
T1 construct: Streptococcus milleri KSB8, which harbors the gtfB gene from S. mutans GS-5 (for GTF B production)
Experimental: The GTF enzyme added to each sample for all assays was equivalent to the amount required to incorporate 1.0-1.5 μmol of glucose over the four hours reaction (1.0-1.5 units).
The samples were incubated 37° C. with rocking for 4 h.
For this assay, a one-way layout experimental design was used in 4×2×7 factorial scheme (enzyme×state×dose). An analysis of variance was carried out and qualitative treatments were compared using Tukey test at level of 5% of significance (p<0.05). A non-linear regression was applied in order to evaluate effects of different concentrations.

[2] = test system: T1, streptococcal GTFs; assay: GTF activity adsorbed onto sHA surface, all GTFs stated together; type: biochemical, Streptococcus mutans, S. sanguinis; conditions: 1.33 mM
Experimental: Glucosyltransferase activity was measured by the incorporation of [^14C-glucose] from labeled sucrose (NEN Research Products, Boston, Mass.) into glucans (Germaine et al., 1974; Venkitaraman et al., 1995). The GTF enzyme added to each sample for all assays was equivalent to the amount required to incorporate 1.0-1.5 μmol of glucose over the four hours reaction (1.0-1.5 units).
For surface assays, the GTFs were adsorbed to hydroxyapatite beads coated with clarified whole saliva (free of GTF activity), as detailed elsewhere (Koo et al., 2000c; Schilling and Bowen, 1988, Venkitaraman et al., 1995). The saliva-coated hydroxyapatite (sHA) beads were exposed to sufficient enzyme to saturate the surface as determined experimentally. Following the adsorption of the enzyme, the beads were washed 3 times with buffer to remove the loosely bound material and exposed to 300 μl of the two-fold dilution series of test compounds (or control) for 30 min. at the same concentrations described above. The beads were washed and exposed to 300 μl [^14C-glucose]-sucrose substrate (100.0 mmol/l sucrose, final concentration). The radiolabeled glucan formed was collected and quantified by scintillation counting (Germaine et al., 1974; Venkitaraman et al., 1995). All the solution and surface assays were done in quadruplicate in at least 3 different experiments. […]

[3] = test system: Mutans Streptococci Strains; assay: MIC and MBC, broth dilution, all strains stated together; type: cell-based, S. mutans (GS-5 and UA159) and S. sobrinus 6715; conditions: Streptococcus mutans; for MIC: read-out: MIC
Experimental: (§1) The minimum inhibitory concentration (MIC) and minimum bactericidal concentration (MBC) were determined for each test compound according to the National Committee for Clinical Laboratory Standards guidelines (Tentative standard M26-T, 1992; NCCLS Publication No. M7-A5, 2000) and Koo et al. (2000b). The broth microdilution and macrodilution methods (in TSB) were used for the antibacterial tests. The starting inoculum was 5×10^5 CFU/ml and the concentrations of test compounds ranged from 15.6 to 500 μM (two-fold dilutions). The MICs and MBCs were determined in quadruplicate in at least 3 different experiments.

[4] = test system: mutans streptococci; assay: Time-kill studies, broth macrodilution; type: cell-based, S. mutans GS-5 and UA159, S. sobrinus 6715
Experimental: For the compound with highest antibacterial activity, the time kill studies were performed by broth macrodilution method (National Committee for Clinical Laboratory Standards, Tentative standard M26-T, 1992). The starting inoculum of S. mutans GS-5 and UA159, and S. sobrinus 6715 was 1-5×10^6 CFU/ml. The final concentration of the antibacterial agent was 4 times MIC (or MBC values). Tubes containing the microorganisms and the test compound in TSB were incubated in 5% CO2 at 37° C.; samples were removed for viable counts at 0, 30 min., 1, 2, 4, 8, and 24 h. Serial dilutions (10^−1 to 10^−4) were prepared in sterile 0.9% sodium chloride solution. The diluted sample (50 μl) was plated on to tryptic soy agar by means of a spiral plater (Autoplate model 3000, Spiral Biotech, Inc., Bethesda, Md.). The plates were incubated in 5% CO2 at 37° C. for 48 h, when the number of colonies was determined. Killing curves were constructed by plotting log10 CFU/ml versus time over 24 h. All the assays were done in quadruplicate on at least 3 occasions. Bactericidal effect was defined as a ≧3 log10 decreases in the CFU/ml from the original inoculum. The potential for drug carry-over to produce falsely low viability counts was minimized by dilution of inocula and plating of small volumes of diluted samples (50 μl). In addition, no evidence of drug carry-over was detected at the lowest dilution used for plating (10^−1).

[5] = test system: S. mutans UA159 and S. sobrinus 6715 biofilms; assay: Time-kill assay in 5-day-old biofilms; type: cell-based; conditions: for antibacterial activity against mutans streptococci biofilms (in words): 1.33 mM (fluoride 250 ppm); for decrease in viable counts of biofilms: 1.33 mM, after 2-4 h incubation
Experimental: Cells of mutans streptococci were grown in tryptone-yeast extract broth with addition of 1% (w/v) sucrose at 37° C. and 5% CO2. […] The killing assays were performed according to Phan et al. (2000). […] The homogenized suspension was serially diluted (10^1 to 10^4) and plated on tryptic soy agar or blood agar by means of a spiral plater (Autoplate model 3000, Spiral Biotech, Inc., Bethesda, Md). […] Killing curves were constructed by plotting log10 CFU/ml versus time over 4 h. All the assays were carried out in quadruplicate on at least 3 different occasions. Bactericidal effect was defined as a ≧3 log10 decreases in the CFU/ml from initial viable counts, at time zero. The potential for drug carry-over to produce falsely low viability counts was minimized by dilution of inocula and plating of small volumes of diluted samples (50 μl).

[6] = test system: Streptococcus sobrinus 6715; assay: Rat caries experiment: S. sobrinus recovered from the jaws; type: in vivo, Sprague Dawley rats; conditions: rats, topical twice daily, five weeks; 1.33 mM (fluoride 250 ppm); means (SD)
Experimental: (§2) Seven litters of ten female Sprague Dawley rats aged 14 days were purchased with their dams from Charles River (Kingston, N.Y., USA). […] The experiment proceeded for five weeks, at which time the animals were killed by CO2 asphyxiation. The lower left jaw was aseptically dissected, suspended in 5.0 mL of sterile saline solution, and sonicated (three 10-second pulses with 5-second intervals at 30 watts, Branson Sonifier 450). The suspension was plated on mitis salivarius agar plus streptomycin to estimate S. sobrinus population and on blood agar to determine total cultivable flora (TCF). […] The determination of caries score was blind by codification of the jaws and was done by 1 calibrated examiner. […] The level of significance was 5%.

[7] = test system: dental caries; assay: Rat caries experiment: caries scores (Larson's modification of Keyes' system); type: in vivo, Sprague Dawley rats; conditions: for smooth-surface caries severity scores versus control (in words): Ds and Dm levels, tt-farnesol Dm only; for smooth-surface caries severity scores versus control (in words) / reduction of the incidence of smooth surface caries compared to control / incidence and severity of sulcal-surface caries (in words): p<0.05; for smooth surface caries, Keyes's score / reduction of the incidence of smooth surface caries compared to control / incidence and severity of sulcal-surface caries (in words): rats; for smooth surface caries, Keyes's score / reduction of the incidence of smooth surface caries compared to control: topical twice daily, five weeks
Experimental: as §2

[8] = test system: Streptococcus mutans GS-5; assay: MIC and MBC, broth dilution; type: cell-based
Experimental: as §1

[9] = test system: Streptococcus mutans UA 159; assay: MIC and MBC, broth dilution; type: cell-based
Experimental: as §1

[10] = test system: Streptococcus sobrinus 6715; assay: MIC and MBC, broth dilution; type: cell-based
Experimental: as §1

[11] = test system: S. mutans strains; assay: MIC and MBC, broth dilution, S. mutans strains stated together; type: cell-based, S. mutans (GS-5 and UA159)
Experimental: as §1

[12] = test system: streptococci; assay: Membrane disruption seen in the phase-contrast microscope; type: cell-based
[13] = test system: biofilms; assay: Formation of biofilms (continued research); type: cell-based

[H]/N=C(\N/C(=N/[H])NCCCCCCNC(=N)NC(=N)Nc1ccc(Cl)cc1)Nc1ccc(Cl)cc1 [Chlorhexidine, chlorhexidine, reference compound]
inhibition of GTFs in solution ([1]; 1.33 mM): 30-45%
inhibitory effects on the activities of GTFs (in words) [1]: either negligible or moderate inhibitory effects
inhibition of GTFs on a surface [2]: 10-20%
MIC ([3]; all strains tested (S. mutans GS-5, UA159, S. sobrinus 6715)): 1.1 to 2.2 µM
MIC ([3]; all strains tested): 1 to 2 µg/mL
MBC ([3]; mutans streptococci strains): 8.9 µM and 8 µg/mL
incubation time to bactericidal effects ([4]; 8.9 μM (MBC), mutans streptococci strains): 8 h
antibacterial activity against mutans streptococci biofilms (in words) [5]: not bactericidal
decrease in viable counts of biofilms [5]: 2-3 log10 CFU/ml
Infection by S. sobrinus, % [6]: 34.1 (10.8)^b %
smooth-surface caries severity scores versus control (in words) [7]: significantly lower
smooth surface caries, Keyes's score [7]: 2.0±1.9
reduction of the incidence of smooth surface caries compared to control [7]: 75%
incidence and severity of sulcal-surface caries (in words) [7]: reduced

CC(C)=CCC/C(C)=C/CC/C(C)=C/CO [tt-Farnesol]
inhibitory effects on the activities of GTFs (in words) [1]: either negligible or moderate inhibitory effects
effects on enzyme activity (GTFs) ([1]; 1.33 mM, solution or surface not specified): 10-20%
MBC [8]: 500 µM (≈ 111 µg/mL)
MIC [8]: 125 µM (≈ 27.8 µg/mL)
MBC [9]: 500 µM (≈ 111 µg/mL)
MIC [9]: 125 µM (≈ 27.8 µg/mL)
MBC ([10]; S. sobrinus 6715): 56 µg/mL
MIC ([10]; S. sobrinus 6715): 14 µg/mL
MBC ([10]; Streptococcus sobrinus 6715): 250 µM
MIC ([10]; Streptococcus sobrinus 6715): 62.5 µM
MBC [11]: 500 μM and 112 μg/ml
MIC [11]: 125 μM and 28 μg/ml
incubation time to bactericidal effects (≧3 log decrease in CFU/ml) ([4]; four times the MIC (or MBC), S. sobrinus 6715 and S. mutans strains): 4-8 h
reduction of viable counts ([4]; four times the MIC (or MBC), within 30 min. to 1 h of incubation): 1 log of CFU/ml
concentration giving visible membrane disruption of streptococci [12]: > 10 mM
decrease in viable counts of biofilms [5]: 1 log10 CFU/ml
Infection by S. sobrinus, % [6]: 44.8 (8.2)^a %
smooth-surface caries severity scores versus control (in words) [7]: significantly lower
formation of biofilms (in words) [13]: inhibits formation of biofilms

[F-].[Na+] [Fluoride, sodium fluoride]
inhibitory effects on the activities of GTFs (in words) [1]: devoid of detectable antimicrobial and anti-GTF activity
inhibitory effects on the activities of GTFs (in words) ([1]; listed as fluoride): either negligible or moderate inhibitory effects
antibacterial activity against mutans streptococci biofilms (in words) [5]: devoid of detectable antimicrobial and anti-GTF activity
antibacterial activity against mutans streptococci biofilms (in words) ([5]; listed as fluoride): negligible antibacterial activity
Infection by S. sobrinus, % [6]: 39.8 (13.2)^ab %
smooth-surface caries severity scores versus control (in words) [7]: significantly lower
smooth surface caries, Keyes's score [7]: 2.3±3.0
reduction of the incidence of smooth surface caries compared to control [7]: 72%
incidence and severity of sulcal-surface caries (in words) [7]: reduced

— patent US20040057908A1, “Oral compositions and use thereof” (priority 2003, published 2004)
